The values that follow come from patent US10039816B2, “Siderophore-based immunization against gram-negative bacteria” (Massachusetts Institute of Technology, priority 2014, dated 2018).

For data set [1] the following is noted: coupling reaction conditions.
A further data set addresses Lipocalin-2 (LCN2) (Homo sapiens, UniProt P80188). Conditions: e.g., sub-nanomolar or low-nanomolar for ferric enterobactin; cited from earlier work.
The test system of a further data set is enterobactin (Ent). Briefly: ELISA for fecal anti-enterobactin IgA in immunized mice. The class given is in vivo, C57BL/6 mice. To be noted: 14-21 days post-immunization, persisted up to 51 days post-immunization. (In general: In an ELISA, binding on a coated surface is turned into a signal by an enzyme label.)
The conditions of data set [2]: intranasal, first immunization and boost 14 days later; monitored up to 51 days; no sign of disease.
The subject of data set [3] is pro-inflammatory cytokines (IL-17, IL-22), Lcn2. Type of data set: in vivo. Conditions: infected vs uninfected mice.
Another data set deals with salmochelin (Glu-Ent). The experiment in a line: ELISA/dot blot for fecal anti-salmochelin IgA in immunized mice. Conditions: day 21 post-immunization. Type of data set: in vivo, C57BL/6 mice.
For another data set, the system named is S. Typhimurium. The class given is in vivo, Salmonella enterica serovar Typhimurium. To be noted: for weight loss: C57BL/6 mice, 4 days after infection with 1×10^9 CFU S. Typhimurium, P=0.05.
Another data set concerns Ent. The class given is in vivo. To be noted: Peyer's patch cells, day 21 post-immunization; not in mock-immunized mice.
Another data set deals with intestinal microbiota. Briefly: Microbiota analysis (16S rDNA, Illumina MiSeq) of colon content of immunized mice. The class given is in vivo. Conditions: for Lactobacillus spp. fraction of the microbiota: immunized, infected mice, day 4; for S. Typhimurium fraction of the intestinal microbes: mice infected with S. Typhimurium for 4 days.
A further data set concerns Glu-Ent. Type of data set: in vivo. Conditions: Peyer's patch cells, day 21 post-immunization; not in mock-immunized mice.
Where [4] appears, read: responders, 96 h after infection.

Sequence of Lipocalin-2 (LCN2) (P80188 21-198, species assumed): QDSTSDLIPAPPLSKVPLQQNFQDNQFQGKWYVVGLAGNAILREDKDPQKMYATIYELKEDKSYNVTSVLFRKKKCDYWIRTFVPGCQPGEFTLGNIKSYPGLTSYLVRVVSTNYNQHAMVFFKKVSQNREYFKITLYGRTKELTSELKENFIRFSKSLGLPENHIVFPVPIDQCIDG

Consider `O=C(N[C@H]1COC(=O)[C@@H](NC(=O)c2cccc(O)c2O)COC(=O)[C@@H](NC(=O)c2cccc(O)c2O)COC1=O)c1cccc(O)c1O` [Enterobactin, enterobactin], for which, in data set [1], the “hydrolysis of the trilactone ring in aqueous solution” value is recorded as “slowly undergoes hydrolysis”.
`O=C(N[C@H]1COC(=O)[C@@H](NC(=O)c2cccc([O-])c2[O-])COC(=O)[C@@H](NC(=O)c2cccc([O-])c2[O-])COC1=O)c1cccc([O-])c1[O-].[Fe+3]` [ferric enterobactin]: the “capture by LCN2” value on Lipocalin-2 (LCN2) is recorded as “high affinity”.
Regarding CTB-Ent, the “specific anti-Ent IgA antibodies in feces (ELISA)” value in the data set on enterobactin (Ent) is recorded as “detected”. Moreover, the “tolerability of the two immunizations” value in data set [2] is “well tolerated”. In [3], the “expression of pro-inflammatory cytokines (IL-17, IL-22) and Lcn2 in response to infection” value was “similarly upregulated”. In the data set on salmochelin (Glu-Ent), the “IgA binding to Glu-Ent (di-glucosylated form) in fecal samples” value is “detected”. The same molecule showed a weight loss in the data set on S. Typhimurium of around 6%. The “bacterial burden of S. Typhimurium in the colon content” value in the data set on S. Typhimurium (in vivo) was “lower bacterial burden”. Moreover, in the data set on S. Typhimurium (setting [4]), the “Salmonella burden, Peyer's patches” value is “lower Salmonella burden”; the “Salmonella burden, spleen” value is “lower Salmonella burden”; the “Salmonella burden, terminal ileum” value is recorded as “lower Salmonella burden”. Moreover, in the data set on Ent, the “spots representing Ent-antibody complexes (ELISPOT)” value is “detected”. In addition, in the data set with intestinal microbiota, the “Lactobacillus spp. fraction of the microbiota” value is around 60% and the “S. Typhimurium fraction of the intestinal microbes” value was found to be 7%. Besides, the “level of Escherichia spp.” value with intestinal microbiota (vs low level in mock-immunized mice) was “further reduced”. Further, the “spots representing Glu-Ent-antibody complexes (ELISPOT)” value in the data set on Glu-Ent is given as “detected”.
As to “Cholera toxin B subunit [CTB, reference compound]”, the “expression of pro-inflammatory cytokines (IL-17, IL-22) and Lcn2 in response to infection” value in [3] is given as “similarly upregulated”. Moreover, in the data set with S. Typhimurium, the weight loss is reported as around 10%. For the same molecule, in the data set with intestinal microbiota, the “Lactobacillus spp. fraction of the microbiota” value is recorded as around 19% and the “S. Typhimurium fraction of the intestinal microbes” value is recorded as “ca. 32%”.
For salmochelins, the “capture by LCN2” value at Lipocalin-2 (LCN2) is recorded as “cannot capture”.
